Key:
[1] = system: brain slices containing the hippocampus (CA3 stimulation, CA1 recording); assay: Electrophysiological LTP recording (fEPSP in hippocampal brain slices); assay type: cell-based, C57BL/6J mice; conditions: for activation effects on LTP (in words): same detection method as Table 5
Method: Test Example 3 Electrophysiological LTP Recording
3.1 Preparation of Brain Slices:
C57BL/6J mice aged 6-8 weeks was taken and anesthetized, then quickly decapitated. The scalp was cut open, and removed the skull and dura mater. Quickly removed the whole brain and placed it in 0-4° C. artificial cerebrospinal fluid (ACSF) saturated with 95% O2 and 5% CO2 to cool it slightly. Resected the cerebellum and one-third of the forebrain, divided the brain into two halves along the midline, and dissected the hippocampus along the cortical margin from the medial side of the brain. The brain tissue containing the hippocampus was fixed on a slide dish with glue, and cut into 400-micron-thick brain slices in the coronal plane by a vibrating microtome. The brain slices were then placed in an incubation chamber on a nylon mesh submerged beneath the liquid surface, continuously supplied with a mixed gas, and incubated at 34° C. in a water bath for 0.5 h. The slices were then transferred to room temperature (26±1° C.) for further incubation until ready for use, with the experiment commencing 2-3 hours later.
3.2 In vitro brain slice potential recording:
Under direct visualization with a surgical microscope, a bipolar metal tungsten wire stimulation electrode with exposed tip was placed on the Schaffer collateral pathway of the CA3 region. The stimulation electrode was connected to the stimulator via an isolator, and the recording electrode was connected to a […] via a microelectrode amplifier, and then connected to data acquisition software.
3.3 Electrophysiological recording:
Before recording field excitatory postsynaptic potentials (fEPSPs), the brain slice was transferred to a recording chamber, and continuously perfused the cerebrospinal fluid in a water bath with a mixture of gases (95% 02, 5% CO2). The stimulation electrode was inserted into the CA3 region of the hippocampus, and the recording electrode was inserted into the CA1 region of the hippocampus. When approaching the target location, the insertion depth of the stimulation electrode and recording electrode was slowly and precisely adjusted. At the same time, a pulse with a width of 1 ms was applied every 10-20 s, and the stimulus intensity was adjusted until the optimal fEPSP was achieved. Then the electrode position was fixed, and a stimulus intensity achieving 30-40% of the maximum response elicited at the optimal fEPSP was set as a stimulus intensity to record a baseline of fEPSP. The recording was continued for 20-30 min to establish a stable baseline value. Subsequently, perfusion administration was performed (initial exploratory dose of 30 μM), with the administration duration ranging from 20-30 minutes (depending on the drug's efficacy). If the drug enhanced or reduced fEPSP, normal ACSF was used for elution for 40-60 minutes to observe whether the enhanced effect could be sustained over the long term: if there was no significant change in fEPSP, the experiment was terminated. […] Experimental data and images were processed using Clampfit software.
4. Data Statistics and Analysis:
All experimental data were expressed as mean±standard error (Mean f SEM). All statistical analyses were performed using one-way ANOVA. Significant differences were indicated as follows: *p≤0.05, **p≤0.01, ***p≤0.001. p>0.05 indicated no significant difference.

[2] = Pharmacokinetic experiment (gavage, plasma); assay type: in vivo; conditions: rat, gavage (p.o.) 10 mg/kg; for AUC(0-t) / Cmax / Tmax: po
Method: Test Example 1 Pharmacokinetic Experiment
Accurately weighed approximately 10 mg of the test sample, dissolved in DMSO to a total volume of 10%, then slowly added 0.5% MC solvent to a total volume of 90% while stirring, sonicated, vortexed, and obtained a solution of visually homogeneous formulation with a concentration of 1 mg/mL; freshly prepared before use.
Pipetted 0.2 mL of the sample into a 1.5 mL centrifuge tube and stored at −80° C. for use in the concentration analysis of the drug solution.
The animals were housed in rat cages and fasted for at least 10 hours prior to the experiment, but had access to water. On the day of the experiment, the animals were weighed and marked on the tail. Blank blood samples were collected prior to drug administration. Blood was collected from the tail vein.
• Route of administration: gavage (p.o.) • Dosage concentration: 1 mg/ml • Dosage: 10 mg/kg • Volume: 10 mL/kg • Procedure: Caught the rat with left hand wearing bite-resistant gloves, hold it upright, inserted the gavage needle into its mouth and throat, and injected the drug into its stomach after confirming that there was no obvious resistance.
Test animals were sampled at 0.5 h, 1 h, 2 h, 4 h, 6 h, 8 h, 12 h, and 24 h post-administration, collected 0.1-0.2 ml of whole blood into EDTA-Na2 anticoagulant tubes, inverted the tubes 3-4 times to mix thoroughly, and centrifuged at 4° C. and 2000 g for 5 minutes to separate the upper layer of plasma. The plasma was promptly transferred to −80° C. for storage and analysis. Blood collection was performed via the tail vein.
(§1) 5. Sample Analysis and Data Processing
(§2) A quantitative detection method for the target compounds was established using Shimadzu liquid chromatography and Triple Quad TM 6500+AB mass spectrometry. The concentration of the parent drug in plasma was analyzed. The analysis results were controlled for variability using quality control samples, and the accuracy of the quality control samples should be between 80% and 120%.
The non-compartmental model in the winnonlin Phoenix software was used to calculate the main pharmacokinetic parameters. These included the area under the pharmacokinetic curve (AUC(0-t) and AUC(0-∞)), elimination half-life (T1/2), maximum plasma concentration (Cmax), and time to reach maximum plasma concentration (Tmax).

[3] = Brain-penetrating pharmacokinetic study (plasma, brain tissue); assay type: in vivo, Sprague-Dawley (SD) rat; conditions: SD rat, gavage (p.o.) 10 mg/kg single dose; for Kp: Sprague-Dawley, brain/plasma, po, read-out: Ratio of total drug in Brain tissue/plasma(B/P)
Excerpt: Test Example 2 Brain-Penetrating Pharmacokinetic Study
Solvent for Administration: 5% DMSO+10% Solutol HS15+85% physiological saline
Formulation preparation process: weighed an appropriate amount of powder, added an appropriate volume of DMSO, vortexed, then added an appropriate volume of Solutol solution, vortexed, and finally added an appropriate amount of physiological saline, vortexed and sonicated to obtain a homogeneous, clear formulation solution.
Two samples of the formulation were retained before administration, and the remaining formulation after administration was stored at 2-8° C. for shipment.
Laboratory animals were housed in the animal facility of Suzhou Xihua New Drug Development Co., Ltd. (license number: SYXK(Su)2021-0019). The animal facility was equipped with an air conditioning system and had good ventilation. The indoor temperature was maintained 20° C.-26° C., and the humidity was maintained 40%-70%4. Artificial lighting was used in the animal rooms, with 12 hours of light and 12 hours of darkness (except when work lighting was required for experimental operations and cleaning). The experimental animals were allowed to eat and drink water freely.
After purchase, the animals were fed normally for at least 3 days. […] Each rat was marked with a tail tag. Animals in the oral administration group were fasted overnight on the day before administration and resumed feeding 4 hours after administration, and free access to water.
• Route of administration: gavage (p.o.) • Concentration: 1 mg/ml • Dose: 10 mg/kg • Volume: 10 mL/kg • Frequency: Single dose
Before administration, checked the condition of the drug formulation and ensured its uniformity by swirling, stirring, or shaking. Calculated the theoretical dosage volume for each SD rat in each group using the following formula.
4. Sample Collection and Processing
Samples were collected from experimental rats at 0.5 h, 1 h, 2 h, 4 h, 6 h, 8 h, and 24 h after administration.
Plasma: At each time point, 0.15 mL of whole blood was collected via the jugular vein and placed in a tube containing anticoagulant (3 μL of 15% EDTA-K2 solution). The tubes were stored on wet ice and centrifuged within 1 hour (2,000 g, 2-8° C., for 10 minutes) to obtain plasma. The plasma was stored in pre-chilled centrifuge tubes, rapidly frozen in dry ice, and then stored at −60° C. or lower in an ultra-low temperature freezer until LC-MS/MS analysis.
Cerebrospinal fluid: the rats was euthanized using the carbon dioxide method. ~50 μL of cerebrospinal fluid was collected using a puncture method, 1 mL syringe was used with the needle bevel facing upward and the needle tip nearly horizontal to puncture the subarachnoid space, secured the needle and slowly withdrew the cerebrospinal fluid. The sample was stored in dry ice within 30 minutes after collection, then transferred it to a −90~−60° C. environment.
Brain tissue: A cardiac perfusion was performed first, followed by brain tissue extraction. Under deep terminal anesthesia, approximately 8 milliliters of physiological saline were used for cardiac perfusion to flush the remaining blood from the brain tissue out of the circulation. After extraction, the brain tissue was gently washed once with frozen physiological saline, blotted up the water, weighed, and then transferred to a storage environment at −90~−60° C. for cryopreservation.
as §1
as §2, with “the sample” for “plasma”
Winnonlin Phoenix 8.1.0.3530 was used to calculate pharmacokinetic parameters: Tmax, Cmax, AUC(0-t), AUC(0-∞), Tu2, MRT(0-∞), etc. […]

AUC(0-t) [2]	Cmax [2]	Tmax [2]	SMILES	activation effects on LTP (in words) [1]	other results
–	–	–	C[C@H](c1ccccn1)[C@@H]1NC(=O)C=C1OCc1ccc(F)cc1 [Compound T-73]	excellent activation effects on LTP	–
–	–	–	C[C@@H](OC1=CC(=O)N[C@H]1Cc1ncccc1F)c1ccc(F)cc1 [Compound T-54]	excellent activation effects on LTP	–
3410 ng·h/mL	1880 ng/mL	30 min	[2H]C([2H])(OC1=CC(=O)N[C@H]1Cc1ccccc1)c1ccc(F)cc1 [Compound T-45]	–	–
–	–	–	C[C@@H](OC1=CC(=O)N[C@H]1[C@@H](C)c1ccccn1)c1ccc(F)cc1 [Compound T-80]	excellent activation effects on LTP	–
3500 ng·h/mL	1020 ng/mL	79.8 min	O=C1C=C(OCc2ccc(F)cc2)[C@H](Cc2ccccn2)N1 [Compound T-01]	–	Total drug exposure (AUC) in brain tissue ([3]; brain tissue): 1198 ng·h/mL; Total drug exposure (AUC) in brain tissue ([3]; plasma): 1929 ng·h/mL; Kp [3]: 0.621; electrical signal conduction in brain slices (in words) ([1]; perfusion administration, hippocampal slices): significantly enhanced electrical signal conduction in brain slices; activation of LTP compared with the control compound (in words) ([1]; versus Compound 50561): higher activation of LTP
–	–	–	C[C@@H](c1ccccn1)[C@@H]1NC(=O)C=C1OCc1ccc(F)cc1 [Compound T-74]	excellent activation effects on LTP	–
–	–	–	C[C@@H](c1ncccc1F)[C@@H]1NC(=O)C=C1OCc1ccc(F)cc1 [Compound T-76]	excellent activation effects on LTP	–
2470 ng·h/mL	1420 ng/mL	25.2 min	O=C1C=C(OCc2ccc(F)cc2)[C@H](Cc2ncccc2F)N1 [Compound T-36]	excellent activation effects on LTP	–
–	–	–	C[C@H](c1ncccc1F)[C@@H]1NC(=O)C=C1OCc1ccc(F)cc1 [Compound T-75]	excellent activation effects on LTP	–
6730 ng·h/mL	1890 ng/mL	90 min	C[C@@H](OC1=CC(=O)N[C@H]1Cc1ccccc1)c1ccc(F)cc1 [Compound T-47]	excellent activation effects on LTP	pharmacokinetic properties (in words) [2]: excellent pharmacokinetic properties; Total drug exposure (AUC) in brain tissue ([3]; brain tissue): 11452 ng·h/mL; Total drug exposure (AUC) in brain tissue ([3]; plasma): 5529 ng·h/mL; Kp [3]: 2.07
–	–	–	C[C@@H](OC1=CC(=O)N[C@H]1[C@@H](C)c1ncccc1F)c1ccc(F)cc1 [Compound T-100]	excellent activation effects on LTP	–
–	–	–	C[C@H](c1ncccc1F)[C@@H]1NC(=O)C=C1O[C@H](C)c1ccc(F)cc1 [Compound T-99]	excellent activation effects on LTP	–
5700 ng·h/mL	2970 ng/mL	15 min	C[C@@H](OC1=CC(=O)N[C@H]1Cc1ccccn1)c1ccc(F)cc1 [Compound T-51]	excellent activation effects on LTP	pharmacokinetic properties (in words) [2]: excellent pharmacokinetic properties
5800 ng·h/mL	1030 ng/mL	49.8 min	C[C@@H](c1ccccc1)[C@@H]1NC(=O)C=C1OCc1ccc(F)cc1 [Compound T-95]	–	pharmacokinetic properties (in words) [2]: excellent pharmacokinetic properties
2500 ng·h/mL	838 ng/mL	79.8 min	O=C1C=C(OCc2ccc(F)cc2)[C@H](Cc2ccccc2)N1 [Compound 50561, reference compound]	–	–
–	–	–	C[C@H](c1ccccn1)[C@@H]1NC(=O)C=C1O[C@H](C)c1ccc(F)cc1 [Compound T-79]	excellent activation effects on LTP	–

Source: patent US20260217671A1, “COMPOUND FOR PREVENTING AND/OR TREATING NEURODEGENERATIVE DISEASE” (TYK MEDICINES, INC., priority 2023, published 2026)
